Measurements published in ChEMBL document CHEMBL6109039, “Designed and synthesized novel tripeptides targeting diabetes and its related pathologies” (Eur J Med Chem, 2025).

Experiments:
Albumin [1] = molecular target: T1, Albumin (Homo sapiens, UniProt P02768); test: Inhibition of D-fructose glycation in human serum albumin model incubated for 14 days by UV spectroscopic analysis relative to control; details: 336 h, time 14 day
Albumin [2] = molecular target: T1, Albumin; test: Inhibition of D-glucose glycation in human serum albumin by measuring absorbance at 279 nm model incubated for 14 days by UV spectroscopic analysis (reference value: 2.302); details: 336 h, time 14 day
Albumin [3] = molecular target: T1, Albumin; test: Inhibition of D-glucose glycation in human serum albumin model by measuring absorbance at 279 nm incubated for 26 days by UV spectroscopic analysis (reference value: 2.301); details: 624 h, time 26 day
Albumin [4] = molecular target: T1, Albumin; test: Inhibition of D-fructose glycation in human serum albumin model by measuring absorbance at 279 nm incubated for 30 days by UV spectroscopic analysis (reference value: 2.323); details: 720 h, time 30 day
Albumin [5] = molecular target: T1, Albumin; test: Inhibition of D-glucose glycation in human serum albumin model by measuring ketoamine moieties incubated for 3 days by Nitroblue tetrazolium (NBT) reduction assay (reference value: 24.27 nmol/mL); details: 72 h, time 3 day
Albumin [6] = molecular target: T1, Albumin; test: Inhibition of D-fructose glycation in human serum albumin model by measuring absorbance at 279 nm incubated for 33 days by UV spectroscopic analysis (Rvb =2.222); details: 792 h, time 33 day
Albumin [7] = molecular target: T1, Albumin; test: Inhibition of D-glucose glycation in human serum albumin model by measuring ketoamine moieties incubated for 7 days by Nitroblue tetrazolium (NBT) reduction assay (reference value: 35.92 nmol/mL); details: 168 h, time 7 day
Albumin [8] = molecular target: T1, Albumin; test: Inhibition of D-glucose glycation in human serum albumin model by measuring ketoamine moieties incubated for 30 days by Nitroblue tetrazolium (NBT) reduction assay (reference value: 27.85 nmol/mL); details: 720 h, time 30 day
Albumin [9] = molecular target: T1, Albumin; test: Inhibition of D-fructose glycation in human serum albumin model by measuring absorbance at 279 nm incubated for 7 days by UV spectroscopic analysis (reference value: 1.072); details: 168 h, time 7 day
Albumin [10] = molecular target: T1, Albumin; test: Inhibition of D-fructose glycation in human serum albumin model by measuring absorbance at 279 nm incubated for 14 days by UV spectroscopic analysis (reference value: 2.333); details: 336 h, time 14 day
Albumin [11] = molecular target: T1, Albumin; test: Inhibition of D-glucose glycation in human serum albumin model incubated for 14 days by UV spectroscopic analysis relative to control; details: 336 h, time 14 day
Albumin [12] = molecular target: T1, Albumin; test: Inhibition of D-glucose glycation in human serum albumin model by measuring absorbance at 279 nm incubated for 7 days by UV spectroscopic analysis (reference value: […]); details: 168 h, time 7 day
Albumin [13] = molecular target: T1, Albumin; test: Inhibition of D-glucose glycation in human serum albumin model by measuring ketoamine moieties incubated for 5 days by Nitroblue tetrazolium (NBT) reduction assay (reference value: 18.58 nmol/mL); details: 120 h, time 5 day
Albumin [14] = molecular target: T1, Albumin; test: Inhibition of D-fructose glycation in human serum albumin model by measuring ketoamine moieties incubated for 26 days by Nitroblue tetrazolium (NBT) reduction assay (reference value: 118.21 nmol/mL); details: 624 h, time 26 day
Albumin [15] = molecular target: T1, Albumin; test: Inhibition of D-fructose glycation in human serum albumin model assessed as reduction in fluorescence intensity incubated for 3 days by UV spectroscopic analysis relative to control; details: 72 h, time 3 day
Albumin [16] = molecular target: T1, Albumin; test: Inhibition of D-glucose glycation in human serum albumin model by measuring ketoamine moieties incubated for 14 days by Nitroblue tetrazolium (NBT) reduction assay (reference value: 28.69 nmol/mL); details: 336 h, time 14 day
Albumin [17] = molecular target: T1, Albumin; test: Inhibition of D-fructose glycation in human serum albumin model by measuring absorbance at 279 nm incubated for 26 days by UV spectroscopic analysis (reference value: 2.267); details: 624 h, time 26 day
Albumin [18] = molecular target: T1, Albumin; test: Inhibition of D-fructose glycation in human serum albumin model by measuring ketoamine moieties incubated for 14 days by Nitroblue tetrazolium (NBT) reduction assay (reference value: 129.58 nmol/mL); details: 336 h, time 14 day
Albumin [19] = molecular target: T1, Albumin; test: Inhibition of D-fructose glycation in human serum albumin model by measuring ketoamine moieties incubated for 7 days by Nitroblue tetrazolium (NBT) reduction assay (reference value: 125.33 nmol/mL); details: 168 h, time 7 day
Albumin [20] = molecular target: T1, Albumin; test: Inhibition of D-glucose glycation in human serum albumin model by measuring absorbance at 279 nm incubated for 30 days by UV spectroscopic analysis (reference value: 2.295); details: 720 h, time 30 day
Albumin [21] = molecular target: T1, Albumin; test: Inhibition of D-glucose glycation in human serum albumin model by measuring absorbance at 279 nm incubated for 5 days by UV spectroscopic analysis (reference value: 0.741); details: 120 h, time 5 day
Albumin [22] = molecular target: T1, Albumin; test: Inhibition of D-glucose glycation in human serum albumin model by measuring ketoamine moieties incubated for 33 days by Nitroblue tetrazolium (NBT) reduction assay (reference value: 66.64 nmol/mL); details: 792 h, time 33 day
Albumin [23] = molecular target: T1, Albumin; test: Inhibition of D-fructose glycation in human serum albumin model by measuring ketoamine moieties incubated for 5 days by Nitroblue tetrazolium (NBT) reduction assay (reference value: 111.94 nmol/mL); details: 120 h, time 5 day
Albumin [24] = molecular target: T1, Albumin; test: Inhibition of D-glucose glycation in human serum albumin model assessed as reduction in fluorescence intensity incubated for 3 days by UV spectroscopic analysis relative to control; details: 72 h, time 3 day
Albumin [25] = molecular target: T1, Albumin; test: Inhibition of D-fructose glycation in human serum albumin model by measuring absorbance at 279 nm incubated for 3 days by UV spectroscopic analysis (reference value: 0.492); details: 72 h, time 3 day
Albumin [26] = molecular target: T1, Albumin; test: Inhibition of D-glucose glycation in human serum albumin model by measuring absorbance at 279 nm incubated for 3 days by UV spectroscopic analysis (reference value: 0.562); details: 72 h, time 3 day
Albumin [27] = molecular target: T1, Albumin; test: Inhibition of D-glucose glycation in human serum albumin model by measuring ketoamine moieties incubated for 26 days by Nitroblue tetrazolium (NBT) reduction assay (reference value: 28.79 nmol/mL); details: 624 h, time 26 day
Albumin [28] = molecular target: T1, Albumin; test: Inhibition of D-fructose glycation in human serum albumin model by measuring absorbance at 279 nm incubated for 5 days by UV spectroscopic analysis (reference value: 1.056); details: 120 h, time 5 day
Albumin [29] = molecular target: T1, Albumin; test: Inhibition of D-glucose glycation in human serum albumin model by measuring absorbance at 279 nm incubated for 33 days by UV spectroscopic analysis (reference value: 1.997); details: 792 h, time 33 day
Albumin [30] = molecular target: T1, Albumin; test: Inhibition of D-fructose glycation in human serum albumin model by measuring ketoamine moieties incubated for 30 days by Nitroblue tetrazolium (NBT) reduction assay (reference value: 128.71 nmol/mL); details: 720 h, time 30 day
Albumin [31] = molecular target: T1, Albumin; test: Inhibition of D-fructose glycation in human serum albumin model by measuring ketoamine moieties incubated for 33 days by Nitroblue tetrazolium (NBT) reduction assay (reference value: 144.33 nmol/mL); details: 792 h, time 33 day
Albumin [32] = molecular target: T1, Albumin; test: Inhibition of D-fructose glycation in human serum albumin model by measuring ketoamine moieties incubated for 3 days by Nitroblue tetrazolium (NBT) reduction assay (reference value: 152.64 nmol/mL); details: 72 h, time 3 day

T1 sequence (P02768 whole entry): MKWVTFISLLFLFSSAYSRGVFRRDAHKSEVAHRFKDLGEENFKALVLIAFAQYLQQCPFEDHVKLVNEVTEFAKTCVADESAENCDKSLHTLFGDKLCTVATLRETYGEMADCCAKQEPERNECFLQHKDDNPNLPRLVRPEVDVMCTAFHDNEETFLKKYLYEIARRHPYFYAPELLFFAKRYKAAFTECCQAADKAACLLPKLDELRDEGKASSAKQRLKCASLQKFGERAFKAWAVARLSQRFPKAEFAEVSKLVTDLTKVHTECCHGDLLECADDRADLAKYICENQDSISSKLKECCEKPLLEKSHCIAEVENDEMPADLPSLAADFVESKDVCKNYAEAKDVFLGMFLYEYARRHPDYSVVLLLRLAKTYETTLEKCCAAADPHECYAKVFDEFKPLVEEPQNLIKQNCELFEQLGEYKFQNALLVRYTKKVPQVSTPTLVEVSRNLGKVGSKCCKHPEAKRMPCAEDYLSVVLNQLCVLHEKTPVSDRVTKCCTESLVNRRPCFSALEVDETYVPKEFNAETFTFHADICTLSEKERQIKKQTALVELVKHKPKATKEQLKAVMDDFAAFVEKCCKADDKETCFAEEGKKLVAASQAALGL

SMILES: NCCC(=O)N[C@@H](Cc1cnc[nH]1)C(=O)O [CARNOSINE]
- inhibition (INH) (Albumin [1]): 1.59%
- OD (Albumin [2]): 1.662
- OD (Albumin [3]): 2.274
- OD (Albumin [4]): 1.866
- Activity (Albumin [5]): 20.51 nmol/mL
- OD (Albumin [6]): 2.173
- Activity (Albumin [7]): 19.93 nmol/mL
- Activity (Albumin [8]): 24.69 nmol/mL
- OD (Albumin [9]): 0.756
- OD (Albumin [10]): 1.872
- inhibition (INH) (Albumin [11]): 41.84%
- OD (Albumin [12]): 0.609
- Activity (Albumin [13]): 17.43 nmol/mL
- Activity (Albumin [14]): 113.02 nmol/mL
- inhibition (INH) (Albumin [15]): 27.77%
- Activity (Albumin [16]): 25.34 nmol/mL
- OD (Albumin [17]): 2.127
- Activity (Albumin [18]): 124.63 nmol/mL
- Activity (Albumin [19]): 119.64 nmol/mL
- OD (Albumin [20]): 1.654
- OD (Albumin [21]): 0.684
- Activity (Albumin [22]): 36.79 nmol/mL
- Activity (Albumin [23]): 105.35 nmol/mL
- inhibition (INH) (Albumin [24]): 52.1%
- OD (Albumin [25]): 0.487
- OD (Albumin [26]): 0.562
- Activity (Albumin [27]): 27.61 nmol/mL
- OD (Albumin [28]): 1.024
- OD (Albumin [29]): 1.853
- Activity (Albumin [30]): 123.84 nmol/mL
- Activity (Albumin [31]): 143.12 nmol/mL
- Activity (Albumin [32]): 144.52 nmol/mL
